Numbers after ± are expanded uncertainties.
Details: 298.15 K; 101.33 kPa; Liquid; Vibrating tube method

In the case of `CCCCCC` [hexane], the mass density is reported as 655.19 ± 0.83 kg/m3.

— the NIST ThermoML archive (doi:10.1016/j.jct.2015.10.011)
